# From ChEMBL document CHEMBL2163337, “Trigohowilols A-G, degraded diterpenoids from the stems of Trigonostemon howii” (J Nat Prod, 2012)
# Experiments:
# Staphylococcus aureus [1] = experiment: Antibacterial activity against methicillin-resistant Staphylococcus aureus clinical isolate 98 by two-fold dilution method; type: functional
# Staphylococcus aureus [2] = experiment: Antibacterial activity against methicillin-resistant Staphylococcus aureus clinical isolate 92 by two-fold dilution method; type: functional
# Pseudomonas aeruginosa = experiment: Antibacterial activity against Pseudomonas aeruginosa ATCC 27853 by two-fold dilution method; type: functional
# Staphylococcus aureus [3] = experiment: Antibacterial activity against Staphylococcus aureus ATCC 25923 by two-fold dilution method; type: functional
# SW480 = experiment: Cytotoxicity against human SW480 cells by MTT assay; type: functional, cell-based
# MCF7 = experiment: Cytotoxicity against human MCF7 cells by MTT assay; type: functional, cell-based
# A549 = experiment: Cytotoxicity against human A549 cells by MTT assay; type: functional, cell-based
# HL-60 = experiment: Cytotoxicity against human HL60 cells by MTT assay; type: functional, cell-based
# SMMC-7721 = experiment: Cytotoxicity against human SMMC7721 cells by MTT assay; type: functional, cell-based
Structure (SMILES),MIC (Staphylococcus aureus [1]),MIC (Staphylococcus aureus [2]),MIC (Pseudomonas aeruginosa),MIC (Staphylococcus aureus [3]),IC50 (SW480),IC50 (MCF7),IC50 (A549),IC50 (HL-60),IC50 (SMMC-7721)
COc1cc2c3c(cc(O)c2cc1C)C(C)(C)C(=O)C=C3 [TRIGOHOWILOL A],25 µg/mL,25 µg/mL,25 µg/mL,25 µg/mL,> 40 µM,> 40 µM,35.6 µM,24.8 µM,> 40 µM
Cc1cc2ccc3c(c2cc1O)C=C(O)C(=O)C3(C)C [TRIGOHOWILOL B],50 µg/mL,50 µg/mL,25 µg/mL,25 µg/mL,> 40 µM,> 40 µM,> 40 µM,> 40 µM,> 40 µM
Cc1cc2c(cc1O)C1=C(C3=Cc4c(cc(O)c5cc(C)c(O)cc45)C(C)(C)C3=O)C(=O)C(C)(C)C1=CC2=O [TRIGOHOWILOL C],25 µg/mL,25 µg/mL,25 µg/mL,25 µg/mL,> 40 µM,> 40 µM,> 40 µM,> 40 µM,> 40 µM
COc1cc2c3c(cc(O)c2cc1C)C(C)(C)C(=O)C(C1=C2C(=CC(=O)c4cc(C)c(O)cc42)C(C)(C)C1=O)=C3 [TRIGOHOWILOL D],12.5 µg/mL,12.5 µg/mL,25 µg/mL,12.5 µg/mL,> 40 µM,> 40 µM,> 40 µM,24.3 µM,> 40 µM
COc1cc2c(cc1C)C(=O)C=C1C2=C(C2=Cc3c(cc(O)c4cc(C)c(O)cc34)C(C)(C)C2=O)C(=O)C1(C)C [TRIGOHOWILOL E],12.5 µg/mL,25 µg/mL,50 µg/mL,6.25 µg/mL,9.42 µM,12.6 µM,9.69 µM,2.61 µM,3.25 µM
COc1cc2c(cc1C)C(=O)C=C1C2=C(C2=Cc3c(cc(O)c4cc(C)c(OC)cc34)C(C)(C)C2=O)C(=O)C1(C)C [TRIGOHOWILOL F],12.5 µg/mL,12.5 µg/mL,25 µg/mL,12.5 µg/mL,3.56 µM,4.2 µM,3.64 µM,2.49 µM,2.33 µM
COc1cc2c(cc1C)C(=O)C=C1C2=C(C2=C3C(=CC(=O)c4cc(C)c(OC)cc43)C(C)(C)C2=O)C(=O)C1(C)C [TRIGOHOWILOL G],> 50 µg/mL,> 50 µg/mL,> 50 µg/mL,> 50 µg/mL,8.39 µM,15.5 µM,5.35 µM,17.8 µM,2.78 µM
CN[C@H](CC(C)C)C(=O)N[C@H]1C(=O)N[C@@H](CC(N)=O)C(=O)N[C@H]2C(=O)N[C@H]3C(=O)N[C@H](C(=O)N[C@H](C(=O)O)c4cc(O)cc(O)c4-c4cc3ccc4O)[C@H](O)c3ccc(c(Cl)c3)Oc3cc2cc(c3O[C@@H]2O[C@H](CO)[C@@H](O)[C@H](O)[C@H]2O[C@H]2C[C@](C)(N)[C@H](O)[C@H](C)O2)Oc2ccc(cc2Cl)[C@H]1O.Cl [VANCOMYCIN HYDROCHLORIDE],0.78 µg/mL,0.78 µg/mL,0.78 µg/mL,0.78 µg/mL,–,–,–,–,–
